Test results taken from paper PMC11022729 (Advanced Science, 2024).
Read-outs that look alike come from different tables or passages of the source.

Assays:
human D3 receptor = molecular target: T1, human D3 receptor (Homo sapiens, UniProt P35462); assay: [3H]-spiperone competition binding assay, D3; conditions: for Ki: mean [CI 95%]
T1 construct: expressed in transfected cells; host or cells: CHO
Experimental: CHO cells stably expressing human dopamine D2short (D2R) and D3 receptor (D3R) were washed and harvested using PBS. […] The cell membrane homogenate was centrifuged (20 000 × g, 20 min, 4 °C), and the resulting cell pellet was resuspended in the binding buffer. Crude membrane extracts were kept at −80 °C until use. Before starting the experiments, cell membranes were thawed, homogenized by sonication (3 × 10 s), and stored in an ice‐cold binding buffer. […] Assays were performed at least in triplicate with appropriate concentrations ranging from 0.01 nM to 100 µM of the test compound. Non‐specific binding was determined using 10 µM haloperidol. By filtering through GF/B filters pretreated with 0.3% (m/v) polyethyleneimine, the bound radioligand was separated from free radioligand using a cell harvester. Radioactivity was measured using liquid scintillation counting. Data were evaluated using the GraphPad Prism 9 software (San Diego, CA, USA) with a nonlinear regression fit.

[1] = tested on: voltage-gated (KV) potassium channel; assay: SafetyScreen44 panel; format: binding, rat; conditions: 10 µM
Experimental: Measurements were performed in duplicate.
channel, which were obtainedfrom ratspecimens).
in brackets) specific for each target.

[2] = Pharmacokinetics in mice (plasma and brain levels, LC-MS); format: in vivo; conditions: mouse
Experimental: To prepare for in vivo studies, we investigated the pharmacokinetic properties of compound 6. […] For comparison, we determined the plasma and brain loxapine levels. […] Collectively, the pharmacological and pharmacokinetic profiles of compound 6 make it an excellent molecule for in vivo pharmacodynamic studies.
Pharmacokinetic experiments were performed by Bienta (Enamine Biology Services, Kiev, Ukraine). Study design, animal selection, handling, and treatment were performed in accordance with the Enamine PK study protocols and the Institutional Animal Care and Use Guidelines. Male C57BL/6J mice (11–16 weeks old) were used in this study. The animals were fasted for 4 h before dosing. […] Each timepoint treatment group included three animals, and a control group was employed, including one animal.
Before collecting blood and brain tissue, the mice were anesthetized with 2,2,2‐tribromoethanol (150 mg kg^−1 i.p.). In studies with i.p. compound administration, the chest was opened, an incision was made in the right atrium, whole blood was collected into tubes containing K2EDTA, and the animals were perfused with saline (10 mL) prior to the excision of the brain tissue (left lobe). In studies with p.o. or i.v. delivery of compounds, blood was collected from the orbital sinus in microtainers containing K3EDTA, the animals were sacrificed by cervical dislocation, and the brain tissue (left lobe) was excised. After collection, the blood samples were centrifuged for 10 min at 3000 rpm, and the brain samples were weighed. All samples were immediately processed, flash‐frozen, and stored at −70 °C until subsequent analysis.
The compound levels in the plasma and brain samples were determined using liquid chromatography–tandem mass spectrometry (LC‐MS/MS) by a staff member from Bienta. Pharmacokinetic data analysis was performed using non‐compartmental, bolus injection, or extravascular input analysis models with WinNonlin 5.2 (PharSight). Data below the lower limit of quantitation were presented as missing data to improve the validity of the half‐life calculations. For each treatment condition, the final concentration values obtained at each time point were analyzed for outliers using Grubbs' test, with the level of significance set at p < 0.05. The sum of the AUC0‐inf (area under the concentration‐time curve from zero to time infinity) was used to estimate the ratiobrain/plasma (concentration ratio of the compound in the brain and plasma).

mice [3] = assay: Accelerating rotarod test; format: in vivo, mouse; conditions: 15 min after dosing
Experimental: (§1) As a prerequisite for interpreting itch behavior experiments, we first tested motor function after systemic dosing.
(§2) Mice were placed on a rotarod treadmill (Ugo Basile, Italy) at increasing speed (4–40 rpm over 300 s) and trained for 4–5 consecutive days. Only mice that reached 300 s without falling off during the training sessions were included in the experiment. In the vertical pole test, the mice were placed head‐upward on top of a vertical pole with a rough surface (diameter, 1 cm; height, 40 cm), and the time until the animals reached the ground was recorded (cut‐off time 20 s). Only mice that reached the ground within 10 s in the baseline measurements were included in the experiment. […] The means of three trials at each time point were calculated for further analyses.

mice [4] = assay: Vertical pole test; format: in vivo, mouse; conditions: 15 min after dosing
Experimental: as §1, §2

mice [5] = assay: Chloroquine-induced itch behavior, wildtype mice; format: in vivo, mouse
Experimental: We then assessed the antipruritic efficacy of compound 6 in a model of histamine‐independent itching induced by the antimalarial drug chloroquine.
Three to four days before the day of the experiment, the fur on the dorsolateral aspect of the neck was shaved under brief isoflurane anesthesia. On the testing day, the mice were habituated to a Plexiglas cylinder (30 cm in diameter) for 30 min. Compound 6 hydrochloride or vehicle were i.p. or p.o. administered, and 15 min later, the pruritogens chloroquine (200 µg), SLIGRL (100 µg), β‐alanine (100 µg), or histamine (800 µg), all dissolved in 0.9% saline (20 µL), were injected subcutaneously into the nape of the neck.^[ [29] ^] Number of scratching bouts directed toward the nape of the neck was assessed over 30 min by videotaping. In experiments with the Slack inhibitor, compound 31 (ref. [27]; 30 mg kg^−1 in 0.9% NaCl with 2% DMSO and 10% Kolliphor) was i.p. administered 5 min prior to compound 6.

[6] = male, C57BL/6J, ip, I.P. 2.5 mg/kg, brain
[7] = male, C57BL/6J, ip, I.P. 2.5 mg/kg, plasma
[8] = male, C57BL/6J, ip, I.P. 10 mg/kg, brain
[9] = male, C57BL/6J, ip, I.P. 10 mg/kg, plasma
[10] = male, C57BL/6J, iv, I.V. 1 mg/kg, brain
[11] = male, C57BL/6J, iv, I.V. 1 mg/kg, plasma
[12] = male, C57BL/6J, po, P.O. 10 mg/kg, brain
[13] = male, C57BL/6J, po, P.O. 10 mg/kg, plasma

T1 sequence (P35462 whole entry): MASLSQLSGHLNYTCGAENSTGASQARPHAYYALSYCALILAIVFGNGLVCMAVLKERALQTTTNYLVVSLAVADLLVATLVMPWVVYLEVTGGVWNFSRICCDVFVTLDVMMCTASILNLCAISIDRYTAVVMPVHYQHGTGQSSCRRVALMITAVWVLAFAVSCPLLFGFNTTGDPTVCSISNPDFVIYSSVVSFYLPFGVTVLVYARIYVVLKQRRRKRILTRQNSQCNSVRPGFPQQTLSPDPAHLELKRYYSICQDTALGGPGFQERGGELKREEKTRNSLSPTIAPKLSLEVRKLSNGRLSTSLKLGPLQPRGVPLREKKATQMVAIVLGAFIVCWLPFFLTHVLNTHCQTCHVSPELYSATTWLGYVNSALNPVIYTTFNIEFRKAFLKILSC

CN1CCN(C2=Nc3ccccc3Oc3ccc(Cl)cc32)CC1 [Loxapine, reference compound]
Ki (human D3 receptor): 112 nM | binding [1]: did not measurably bind | Kp ([2]; male, C57BL/6J, brain and plasma, ip, 2.5 mg kg−1 i.p., from AUC0-inf, read-out: ratio brain/plasma): 5.12 | AUC(0-inf) [2, 6]: 913 ng·h/mL | Cmax [2, 6]: 493 ng/mL | Tmax [2, 6]: 15 min | half-life ([2]; male, C57BL/6J, ip, I.P. 2.5 mg/kg, brain, read-out: t1/2): 82.2 min | AUC(0-inf) [2, 7]: 178 ng·h/mL | Cmax [2, 7]: 143 ng/mL | Tmax [2, 7]: 15 min | half-life ([2]; male, C57BL/6J, ip, I.P. 2.5 mg/kg, plasma, read-out: t1/2): 61.9 min | motor function, accelerating rotarod test (mice [3]; dose of ≥ 0.39 mg kg−1 i.p.): markedly reduced the ability of the mice to perform | motor function, vertical pole test (mice [4]; dose of ≥ 0.39 mg kg−1 i.p.): markedly reduced the ability of the mice to perform | chloroquine-induced scratching behavior (mice [5]; wildtype mice, systemic low dose, preliminary experiments): considerably alleviated

O=C(O)COCCN1CCN(C2=Nc3ccccc3Oc3ccc(Cl)cc32)CC1 [Compound 6]
fold lower affinity against D3 as compared to loxapine (human D3 receptor): ≈ 31 fold | Ki (human D3 receptor): 3520 nM | binding [1]: did not measurably bind | AUC(0-inf) [2, 8]: 6780 ng·h/mL | Cmax [2, 8]: 5490 ng/mL | Tmax [2, 8]: 15 min | half-life ([2]; male, C57BL/6J, ip, I.P. 10 mg/kg, brain, read-out: t1/2): 39.7 min | AUC(0-inf) [2, 9]: 5600 ng·h/mL | Cmax [2, 9]: 6280 ng/mL | Tmax [2, 9]: 15 min | half-life ([2]; male, C57BL/6J, ip, I.P. 10 mg/kg, plasma, read-out: t1/2): 35 min | AUC(0-inf) [2, 10]: 520 ng·h/mL | Cmax [2, 10]: 493 ng/mL | Tmax [2, 10]: 15 min | half-life ([2]; male, C57BL/6J, iv, I.V. 1 mg/kg, brain, read-out: t1/2): 62.1 min | AUC(0-inf) [2, 11]: 473 ng·h/mL | Cmax [2, 11]: 562 ng/mL | half-life ([2]; male, C57BL/6J, iv, I.V. 1 mg/kg, plasma, read-out: t1/2): 52.5 min | half-life ([2]; male, C57BL/6J, plasma and brain, ip, 10 mg kg−1 i.p., first-order kinetics, read-out: half-life in the plasma and brain): ~35 min | AUC(0-inf) [2, 12]: 3750 ng·h/mL | Cmax [2, 12]: 2460 ng/mL | Tmax [2, 12]: 15 min | half-life ([2]; male, C57BL/6J, po, P.O. 10 mg/kg, brain, read-out: t1/2): 71.9 min | AUC(0-inf) [2, 13]: 4070 ng·h/mL | Cmax [2, 13]: 3140 ng/mL | Tmax [2, 13]: 15 min | half-life ([2]; male, C57BL/6J, po, P.O. 10 mg/kg, plasma, read-out: t1/2): 67.4 min | blood–brain barrier crossing ([2]; 10 mg kg−1 i.p.): readily crossed the blood–brain barrier | motor function, accelerating rotarod test (mice [3]; 3–30 mg i.p.): did not impair motor function | motor function, vertical pole test (mice [4]; 3–30 mg i.p.): did not impair motor function | chloroquine-induced scratching behavior (mice [5]; 15 mg kg−1 p.o.): profound antipruritic effect | chloroquine-induced scratching behavior (mice [5]; 3, 10, or 30 mg kg−1 i.p. 15 min prior to s.c. chloroquine, scratching bouts over 30 min): ameliorated scratching behavior in a dose‐dependent manner
